Earlier results as cited in PMC6337720 (Inorganic chemistry, 2018).

Settings: aerated CH3CN

SMILES: F[P-](F)(F)(F)(F)F.F[P-](F)(F)(F)(F)F.[Ru+2].c1ccc(-c2ccccn2)nc1.c1ccc(-c2ccccn2)nc1.c1ccc(-c2ccccn2)nc1 [[Ru(bpy)3](PF6)2]
- ΦΔ singlet oxygen quantum yield of the standard: 0.56
